According to PubChem BioAssay AID651570 (Sanford-Burnham Center for Chemical Genomics, 2012):
Active and inactive are the calls of the source.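 The calls were made as follows: active = compounds that block the Wnt3a luciferase reporter with IC50 at or below 20 µM, flagged as nonspecific; inactive = the rest.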

Test system: Wnt-LIGHT cells, Wnt3a-conditioned, luciferase reporter luminescence
Experiment: Wnt3a-driven reporter signaling inhibition, dose response, selectivity assay for Gli-SUFU antagonist project, Wnt-LIGHT cells, luminescence (AID 651570)

IC50 | Structure (SMILES)
> 50 µM (inactive) | O=C(C[C@H]1C/C=C\C[C@H](NC(=O)OCC2c3ccccc3-c3ccccc32)C(=O)OC[C@@H]2CCCN2C1=O)N[C@H](CO)Cc1ccccc1
> 50 µM (inactive) | O=C(Nc1ccccc1)C1=C[C@H](C2CCCCC2)C[C@H](OCCCCO)O1
